Counter-ions that a name gives are not always drawn.
Molecular target: T1, untagged HECT of NEDD4 wild-type (WT) (E3 ligase) (Homo sapiens, UniProt P46934)
T1 construct: untagged HECT of NEDD4 wild-type (WT) (E3 ligase); made in house
T1 sequence (P46934 519-900 isoform P46934-4 limits assumed): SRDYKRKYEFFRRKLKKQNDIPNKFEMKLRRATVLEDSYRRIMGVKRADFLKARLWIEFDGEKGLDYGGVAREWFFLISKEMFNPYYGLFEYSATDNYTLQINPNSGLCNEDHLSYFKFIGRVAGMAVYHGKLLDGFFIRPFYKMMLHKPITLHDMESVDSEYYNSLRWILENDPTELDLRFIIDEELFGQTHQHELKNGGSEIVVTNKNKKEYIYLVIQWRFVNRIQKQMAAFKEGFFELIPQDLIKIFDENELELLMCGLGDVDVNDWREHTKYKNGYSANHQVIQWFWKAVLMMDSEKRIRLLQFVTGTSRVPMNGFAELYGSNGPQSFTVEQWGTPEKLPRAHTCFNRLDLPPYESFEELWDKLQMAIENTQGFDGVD
Assay: In vitro ubiquitination assay TR-FRET based (self-ubiquitination of NEDD4)
Type: biochemical
Conditions: at 11 μM; pre-incubated for 1 hour; AUC of 120 minutes kinetic; read-out: percentages of inhibition (NEDD4)
From the text: FIG. 1: TR-FRET kinetic assay performed with compound 12. […] Reactions were initiated with the addition of ATP. As labeled ubiquitin molecules become incorporated into chains they come into close proximity, resulting in energy transfer and increased signal to background detection. The activity of the enzyme is continuously and real time detected and it is expressed as % of signal/background during the time.
In order to quantitatively measure the self-ubiquitination process of the E3 HECT ligase NEDD4 the inventors employed a TR-FRET based assay. TR-FRET technology exploits the long-lasting emission of lanthanide fluorescence to interpose a short time-delay between FRET donor excitation and emission. This phenomenon enables to isolate real fluorescent signals from short-lived background emissions, thus reducing possible interference from compounds.
In the present study, elongation of the ubiqutin chain by NEDD4 is measured by adding bacterially expressed E1, His-tagged UBE2D3 (E2) and untagged HECT of NEDD4 wild-type (WT) (E3 ligase) (named in FIG. 1 as WT) enzymes to a mixture of Eu-cryptate ubiquitin, Cy5-ubiquitin and wild-type ubiquitin, combined in a ratio optimized for TR-FRET based conjugation (100×TRF-Ubiquitin Mix, SBB-TR0051). […] Bacterially expressed E1, His-tagged UBE2D3 (E2), untagged HECT NEDD4 (E3 ligase) WT and NEDD4 C/A enzymes were produced and purified as reported in E. Maspero et al. Methods Mol Biol. 1449:153-60 (2016).
Enzymatic incorporation of the labeled TRF-Ubiquitin mix into chains leads to an increase in fluorescence emission at 665 nm (emission of the acceptor Cy5-Ubiquitin, Emacceptor) and decrease at emission wavelength 620 nm (emission of the donor Eu-cryptate Ubiquitin, Emdonor).
The assay was performed in a 384-well plate format (Optiplate, Perkin Elmer, #6007290) on an automated liquid-handler (Hamilton STAR, Hamilton Robotics, Switzerland).
All compounds were dissolved in 100% DMSO and serially diluted in 96-well plates (from 100 μM to 0.005 μM).
Briefly, all reagents were thawed and kept on ice. A master mix containing E1, E2, E3 and TRF-Ubiquitin Mix (SBB-TR0051) diluted in the assay buffer (Tris-HCl pH 7.6 25 mM, NaCl 100 mM, MgCl2 5 mM and Tween 0.01%) is prepared and 50 μl/well is dispensed in a 384 well plate. 3 μl of compounds dissolved in DMSO in the above-indicated concentration range were added and pre-incubated for 1 hour. Final E1, E2 and E3 concentrations in the assay buffer (Tris-HCl pH 7.6 25 mM, NaCl 100 mM, MgCl2 5 mM and Tween 0.01%) were 30, 350 and 50 nanomolars, respectively. The reaction was initiated with the addition of ATP (22 μl of 2 mM ATP, JenaBioscience, NU-1010) and was allowed to proceed for 120 minutes, measuring fluorescence emission at 665 nm and 620 nm in real-time on an EnSpire microplate reader (Perkin Elmer).
Kinetic raw data were analyzed by Area Under the Curve (AUC) method using Prism GraphPad software.
% signal/background corresponds to the following equation: (Experimental signal−Background signal)/Background signal×100%
Experimental signal corresponds to the signal obtained by the enzymatic reaction in presence of the vehicle (DMSO) and/or the different compound concentrations. Background signal corresponds to the signal obtained by the enzymatic reaction in absence of ATP.
The relative potency of the compounds was evaluated by dose-response curves following the enzymatic reaction of HECT NEDD4 WT in real time for 120 minutes.
Percentage of inhibition is then determined by the equation: % inhibition=100×[1−(X)/(MAX)],
where MAX correspond to AUC of the vehicle (DMSO) treated enzyme, and X corresponds to the AUC of the compound treated enzyme.

Compound	inhibition at 11 µM
CCOC(=O)/C=C/CNCCCN1c2ccccc2NC(=O)c2ccc(C(F)(F)F)cc21 [Compound 25, Ethyl (E)-4-{[3-(11-oxo-3-(trifluoromethyl)-10,11-dihydro-5H-dibenzo[b,e][1,4]diazepin-5-yl)propyl]amino}but-2-enoate maleate]	< 30%
N#C/C=C/CNCCCN1c2ccccc2CCc2ccc(Cl)cc21 [Compound 22, (E)-4-{[3-(3-chloro-10,11-dihydro-5H-dibenzo[b,f]azepin-5-yl)propyl]amino}but-2-enenitrile hydrochloride]	> 50%
CCOC(=O)/C=C/CNCCCN1c2ccccc2C(=O)N(CCCO)c2ccc(Cl)cc21 [Compound 52, Ethyl (E)-4-({3-[7-chloro-10-(3-hydroxypropyl)-11-oxo-10,11-dihydro-5H-dibenzo[b,e][1,4]diazepin-5-yl]propyl}amino)but-2-enoate maleate]	30 to 50%
CCOC(=O)/C=C/CNCCCCN1c2ccccc2NC(=O)c2ccc(Cl)cc21 [Compound 24, Ethyl (E)-4-{[4-(3-chloro-11-oxo-10,11-dihydro-5H-dibenzo[b,e][1,4]diazepin-5-yl)butyl]amino}but-2-enoate maleate]	> 50%
CN(C)C(=O)/C=C/CNCCCN1c2ccccc2CCc2ccc(Cl)cc21 [Compound 20, (E)-4-{[3-(3-chloro-10,11-dihydro-5H-dibenzo[b,f]azepin-5-yl)propyl]amino}-N,N-dimethyl-but-2-enamide hydrochloride]	< 30%
NC(=O)/C=C/CNCCCN1c2ccccc2CCc2ccc(Cl)cc21 [Compound 18, (E)-4-{[3-(3-chloro-10,11-dihydro-5H-dibenzo[b,f]azepin-5-yl)propyl]amino}but-2-enamide hydrochloride]	< 30%
CCOC(=O)/C=C/CNCCCCN1c2cc(Cl)ccc2CCc2cnn(C)c21 [Compound 43, Ethyl (E)-4-{[4-(8-chloro-1-methyl-4,5-dihydropyrazolo-[3,4-b][1]-benzazepin-10(1H)-yl)butyl]amino}but-2-enoate maleate]	> 50%
CCOC(=O)/C=C/CNCC(O)CN1c2ccccc2CCc2ccc(Cl)cc21 (stereo not drawn) [Compound 34, Ethyl (E)-4-{[2-hydroxy-3-(3-chloro-10,11-dihydro-5H-dibenzo[b,f]azepin-5-yl)]propylamino} but-2-enoate]	> 50%
COC(=O)/C=C/CNCCCCN1c2ccccc2CCc2ccc(Cl)cc21 [Compound 62, Methyl (E)-4-[4-(3-chloro-10,11-dihydro-5H-dibenzo[b,f]azepin-5-yl)butylamino]but-2-enoate maleate]	> 50%
CCOC(=O)/C=C/CNCCCCCN1c2ccccc2CCc2ccc(Cl)cc21 [Compound 13, Ethyl (E)-4-[5-(3-chloro-10,11-dihydro-5H-dibenzo[b,f]azepin-5-yl)pentylamino]but-2-enoate maleate]	> 50%
O=C(O)/C=C/CNCCCCN1c2ccccc2CCc2ccc(Cl)cc21 [Compound 17, (E)-4-[4-(3-chloro-10,11-dihydro-5H-dibenzo[b,f]azepin-5-yl)butylamino]but-2-enoic acid 2,2,2-trifluoroacetate]	< 30%

More lines, now with the values ahead:

inhibition at 11 µM	Compound
> 50%	CN(C/C=C/C(=O)OCCOCCOCCOCCOCCOCCNC(=O)CCCC[C@@H]1SC[C@@H]2NC(=O)N[C@@H]21)CCCCN1c2ccccc2CCc2ccc(Cl)cc21 [Compound 95, 2-(2-{2-[2-(2-{2-[5-((3aS,4S,6aR)-2-Oxo-hexahydro-thieno[3,4-d]imidazol-4-yl)-pentanoylamino]-ethoxy}-ethoxy)-ethoxy]-ethoxy}-ethoxy)-ethyl (E)-4-{[4-(3-chloro-10,11-dihydro-dibenzo[b,f]azepin-5-yl)-butyl]-methyl-amino}but-2-enoate]
> 50%	CCONC(=O)/C=C/CNCCCCN1c2ccccc2CCc2ccc(Cl)cc21 [Compound 80, (E)-4-[4-(3-chloro-10,11-dihydro-5H-dibenzo[b,f]azepin-5-yl)butylamino]-N-ethoxy-but-2-enamide maleate]
> 50%	C#CCOCCN1C(=O)c2ccc(Cl)cc2N(CCCCNC/C=C/C(=O)OCC)c2ccccc21 [Compound 88, Ethyl (E)-4-{[4-[3-chloro-10-[2-(prop-2-yn-1-yloxy)ethyl]-11-oxo-10,11-dihydro-5H-dibenzo[b,e][1,4]diazepin-5-yl)butyl]amino}but-2-enoate maleate]
> 50%	CCOC(=O)/C=C/CNCCCCN1c2ccc(CO)cc2CCc2ccc(Cl)cc21 [Compound 74, Ethyl (E)-4-[4-(7-Chloro-2-hydroxymethyl-10,11-dihydro-dibenzo[b,f]azepin-5-yl)-butylamino]-but-2-enoate maleate]
> 50%	C#CCOCCOc1ccc2c(c1)CCc1ccc(Cl)cc1N2CCCCN(C)C/C=C/C(=O)OC [Compound 89, Methyl (E)-4-{4-[7-chloro-2-(2-prop-2-ynoxyethoxy)-10,11-dihydro-5H-dibenzo[b,f]azepin-5-yl]-butyl-methyl-amino}-but-2-enoate maleate]
> 50%	C#CCOc1ccc2c(c1)CCc1ccc(Cl)cc1N2CCCCNC/C=C/C(=O)OCC [Compound 100, Ethyl (E)-4-[4-(7-Chloro-2-prop-2-ynyloxy-10,11-dihydro-dibenzo[b,f]azepin-5-yl)-butylamino]-but-2-enoate maleate]
> 50%	CN(C/C=C/C(=O)OCCOCCOCCOCCOCCOCCOCCOCCNC(=O)CCCC[C@@H]1SC[C@@H]2NC(=O)N[C@@H]21)CCCCN1c2ccccc2CCc2ccc(Cl)cc21 [Compound 96, 2-(2-{2-[2-(2-{2-[2-(2-[5-((3aS,4S,6aR)-2-Oxo-hexahydro-thieno[3,4-d]imidazol-4-yl)-pentanoylamino]-ethoxy)-ethoxy]-ethoxy}-ethoxy)-ethoxy]-ethoxy}-ethoxy)-ethyl (E)-4-{[4-(3-chloro-10,11-dihydro-dibenzo[b,f]azepin-5-yl)-butyl]-methyl-amino} but-2-enoate]
> 50%	COCCOCCOC(=O)/C=C/CNCCCCN1c2ccccc2CCc2ccc(Cl)cc21 [Compound 93, 2-(2-Methoxy-ethoxy)-ethyl (E)-4-[4-(3-chloro-10,11-dihydro-dibenzo[b,f]azepin-5-yl)-butylamino]but-2-enoate maleate]
> 50%	CCOC(=O)/C=C/CNCCCCN1c2ccc(COCCOC)cc2CCc2ccc(Cl)cc21 [Compound 76, Ethyl (E)-4-[4-(7-chloro-2-methoxyethoxymethyl-10,11-dihydro-dibenzo[b,f]azepin-5-yl)-butylamino]-but-2-enoate maleate]
> 50%	C#CCOCCOC(=O)/C=C/CNCCCCN1c2ccccc2CCc2ccc(Cl)cc21 [Compound 92, 2-Prop-2-ynyloxy-ethyl (E)-4-[4-(3-chloro-10,11-dihydro-5H-dibenzo[b,f]azepin-5-yl)butylamino]but-2-enoate maleate]

From patent US12403144B2, “HECT E3 ligase inhibitors and uses thereof” (IFOM FONDAZIONE ISTITUTO FIRC DI ONCOLOGIA MOLECOLARE, priority 2019, dated 2025)
